Measurements as given in patent US20150224164A1, “TREATMENT OF AUTISM SPECTRUM DISORDERS USING GLYCYL-L-2-METHYLPROLYL-L-GLUMATIC ACID” (Neuren Pharmaceuticals Limited, priority 2013, published 2015).
Like-named read-outs stand apart in the source and are kept apart here. Where a SMILES comes first, the peptide text is derived from it.

Legend:
[1] = system: hippocampal slices of heterozygous Shank3-deficient mice; assay: Hippocampal slice electrophysiology, Shank3-deficient mice (Example 13); type: in vivo, mouse; conditions: 15 or 60 mg/kg oral b.i.d. 14 days
Procedure: 1 to 3 month old wild type and heterozygous Shank3-deficient mice are divided into 4 treatment groups: placebo treated wild-type, placebo treated Shank3-deficient group and two Shank3-deficient G-2-MePE treated groups. The animals are given placebo (water) or G-2-MePE formulated in water administered orally, b.i.d for 14 days. G-2-MePE is administered at two doses: 15 or 60 mg/kg.
Post-mortem, acute hippocampal slices (350 μm) are prepared from mice using a tissue chopper. Slices are maintained and experiments are conducted at 32° C. Slices are perfused with Ringer's solution containing (in mM): NaCl, 125.0; KCl, 2.5; MgSO4, 1.3; NaH2PO4, 1.0; NaHCO3, 26.2; CaCl2, 2.5; glucose, 11.0. […] Slices are maintained for 1 hr prior to establishment of a baseline of field excitatory postsynaptic potentials (fEPSPs) recorded from stratum radiatum in area CA1, evoked by stimulation of the Schaffer collateral-commissural afferents (100 μs pulses every 30 s) with bipolar tungsten electrodes placed into area CA3. […] The EPSP initial slope (mV/ms) is determined from the average waveform of four consecutive responses. […] AMPA receptor-mediated and NMDA receptor-mediated I/O relationships are measured in the presence of ionotropic glutamate receptor antagonists: […] APV (50 μM) and 6-cyano-7-nitroquinoxaline-2,3-dione CNQX (100 μM). […]

Akt = assay: Western blot of phosphorylated Akt; type: in vivo, mouse; conditions: fmr1 KO; 100 mg/kg 4 weeks; p<0.05
Procedure: Phosphorylated Extracellular Signal-Regulated Protein Kinase (ERK) and Protein Kinase B (Akt) expression was measured by Western blot analysis in lymphocytes from fmr1 KO and wild-type animals administered ether vehicle or G-2MePE (100 mg/kg, i.p.; 28 days) treated in the behavior experiments as previously described (Lopez Verrilli et al. 2009). ERK is a classical MAPK signal transduction protein, responsible for growth factor transduction, proliferation, cytokine response to stress and apoptosis. […]
To conduct the western blots, antibodies were used against Akt ( 1/1000) (Cell Signaling), ERK1/2 ( 1/2000) (Cell Signaling), antiphospho-Akt ( 1/1000) and antiphospho-ERK ( 1/2000) (Cell Signaling). Total Akt and ERK 1/2 protein content (phosphorylated) were evaluated by blotting membranes with antiphospho-Akt ( 1/1000) and antiphospho-ERK antibodies ( 1/2000) (Cell Signaling). Akt or ERK phosphorylation was normalized to protein content in the same sample and expressed as % of change with respect to basal conditions, considering basal levels as 100%. Protein loading was evaluated by stripping and re-blotting membranes with b-actin antibody ( 1/1000) (Sigma Chemical Co.). […]

[2] = Pharmacokinetic studies, plasma half-life; type: in vivo; conditions: rat
Procedure: The ability of the rats to remember or to relearn the original platform location was tested four weeks after original training. This means that residual drug would have been washed out for a minimum of 7 days in the case of the 3-week pumps, and 21 days in the case of the 1-week pumps. The retention testing procedure was identical to that of acquisition. Pharmacokinetic studies indicate that the plasma concentration of subcutaneously administered G-2-MePE rose to a peak and then declined with an approximately first order kinetic pattern, with a plasma half-life (t ½) of between about 30 and 60 minutes. Thus, by the time the retention study was performed, at least 7 days after removal of the G-2-MePE containing minipumps, nearly all of the G-2-MePE had been cleared from the animals' circulation.

MeCP2 deficient mice = assay: Survival after oral administration (Example 11); type: in vivo, mouse; conditions: 20 or 80 mg/kg daily
Procedure: Therefore, we administer G-2-MePE orally to MeCP2 deficient mice as described in US 2009/0074865. Briefly, an aqueous solution, a water-in-oil emulsion (micro-emulsion, coarse emulsion or liquid crystal), or a gel composition containing a pharmaceutically effective amount of G-2-MePE (20 or 80 mg/kg per animal) is administered daily. In control MeCP2 deficient animals, we administer saline only, and wild-type animals are used to obtain baseline data similar to the design of studies described in Example 8 above.

C[C@@]1(C(=O)N[C@@H](CCC(=O)O)C(=O)O)CCCN1C(=O)CN [Example G-2-MePE, Glycyl-L-2-methylprolyl-L-glutamic acid] (HELM PEPTIDE1{G.[C[C@@]1(C(=O)[*:2])CCCN1[*:1]].E}$$$$V2.0)
AMPA receptor-mediated field potentials, slope of I/O function [1]: normalizes
hippocampal LTP and its maintenance [1]: increased hippocampal long-term potentiation
Akt phosphorylation compared to total Akt (Akt): significant reduction in Akt phosphorylation
half-life ([2]; in vivo, read-out: plasma half-life in vivo): ~30 min
half-life ([2]; sc, subcutaneously administered, read-out: plasma half-life (t 1/2)): 30 to 60 min
survival (MeCP2 deficient mice): survival is increased substantially
